Assay results as given in patent US10336792B2, “Antimicrobial peptide dendrimers” (priority 2014, dated 2019).
In brackets after ≈: the same amount, converted by molar mass. Positions of bridges follow the written chain, without caps; N, C: chain ends. Non-standard residues stand in square brackets, D forms with d. Residues, ends and D or L forms follow the SMILES beside them. Groups on a side chain read outwards from the residue. Chains are numbered I, II in the order given. *: point of attachment. Palmitoyl = CCCCCCCCCCCCCCCC(=O)*; Dab = NCC[C@H](N)C(=O)O; Dap = NC[C@H](N)C(=O)O

Tested on: Pseudomonas aeruginosa (strain PA01)
Test: microbe, parasite or virus in culture
Type: cell-based
Settings: strain
Procedure: (§1) Antimicrobial activity was assayed against Bacillus subtilis (strain BR151), Escherichia coli (strain DH5α) and Pseudomonas aeruginosa (strain PA01). Microdilution broth method was used to determine the minimal inhibitory concentration (MIC). A colony of bacteria was grown in LB-medium overnight at 37° C. The concentration was quantified by measuring absorbance at 600 nm and diluted to OD600=0.1 (1×10^8 CFU/mL). The samples were prepared as stock solutions of 1 mg mL^−1 in H2O and diluted serially by ⅔ in nutrient LB in a 96-well microtiterplate (Cornstar, polypropylene, untreated). The sample solutions (50 μL) were mixed with the diluted bacterial suspension with an OD600 nm of 0.001 (50 μL). […] The plates were incubated at 37° C. until satisfactory growth (18-24 h). For each test, two columns of the plate were kept for sterility control (SC, broth only) and growth control (GC, broth with bacterial inoculums, no antibiotics). 10 μL of a solution of MTT (0.1% in H2O) was added to each well. The minimal inhibitory concentration (MIC) was defined as the lowest concentration of the antimicrobial substance (peptide dendrimer) that inhibited visible growth of the tested bacteria (yellow) with the unaided eye. For microbiological study the linear peptide LysTyrLysLysAlaLeuLysLysLeuAlaLysLeuLeu (SEQ ID No. 1) was used as reference.
All peptides were tested for their activity against P. aeruginosa PAO1 in a broth dilution assay (Wiegand, I. et al., 2008, Nat. Protoc., 3, 163-75; Clinical and Laboratory Standards Institute document M7-A7 7th Edition) to determine the MIC (minimal inhibitory concentration) values. The stock solutions of the peptide dendrimers were diluted serially by ⅔ in nutrient LB in 96-well microtiter plates. Bacteria were grown in nutrient LB overnight at 37° C. After dilution the bacteria were added to the peptides and incubated overnight (18-24 h) at 37° C. […] The position of the amino acids between the branching units seems to be optimal if the hydrophobic amino acid is the first counting from C-terminus and the charged one is on the second position. Introducing Ala as additional hydrophobic amino acid reduces activity (MSt-120). […] Also assembling charged or hydrophobic sections between the branching units leads to loss of activity whereas altering L-amino acids to D-amino acids maintains activity leading to the hypothesis that the mechanism of action should not be receptor mediated.

| Compound | MIC P. aeruginosa PAO1 [µg/mL] |
| --- | --- |
| CC(C)C[C@H](NC(=O)[C@H](CCCCN)NC(=O)[C@H](CCCCNC(=O)[C@H](CC(C)C)NC(=O)[C@H](CCCCN)NC(=O)[C@H](CCCCNC(=O)[C@H](CC(C)C)NC(=O)[C@@H](N)CCCCN)NC(=O)[C@H](CC(C)C)NC(=O)[C@@H](N)CCCCN)NC(=O)[C@H](CC(C)C)NC(=O)[C@H](CCCCN)NC(=O)[C@H](CCCCNC(=O)[C@H](CC(C)C)NC(=O)[C@@H](N)CCCCN)NC(=O)[C@H](CC(C)C)NC(=O)[C@@H](N)CCCCN)C(N)=O [MSt-146, (KL)4(KKL)2(KKL)] (I: H-KLK([Leu-Lys])KLKKL-NH2 / II: H-KLK([Leu-Lys])KL; amide I:6-II:C) | 7 (≈ 3.35 µM) |
| CC(C)C[C@H](NC(=O)[C@H](CCCCN)NC(=O)[C@H](CNC(=O)[C@H](CC(C)C)NC(=O)[C@H](CCCCN)NC(=O)[C@H](CNC(=O)[C@H](CC(C)C)NC(=O)[C@@H](N)CCCCN)NC(=O)[C@H](CC(C)C)NC(=O)[C@@H](N)CCCCN)NC(=O)[C@H](CC(C)C)NC(=O)[C@H](CCCCN)NC(=O)[C@H](CNC(=O)[C@H](CC(C)C)NC(=O)[C@@H](N)CCCCN)NC(=O)[C@H](CC(C)C)NC(=O)[C@@H](N)CCCCN)C(N)=O [MSt-138, (KL)4(BKL)2(BKL)] (I: H-KL[Dap]([Leu-Lys])KL[Dap]KL-NH2 / II: H-KL[Dap]([Leu-Lys])KL; amide I:6-II:C) | 2 (≈ 1.02 µM) |
| CC(C)C[C@H](NC(=O)[C@H](CCN)NC(=O)[C@H](CCCCNC(=O)[C@H](CC(C)C)NC(=O)[C@H](CCN)NC(=O)[C@H](CCCCNC(=O)[C@H](CC(C)C)NC(=O)[C@@H](N)CCN)NC(=O)[C@H](CC(C)C)NC(=O)[C@@H](N)CCN)NC(=O)[C@H](CC(C)C)NC(=O)[C@H](CCN)NC(=O)[C@H](CCCCNC(=O)[C@H](CC(C)C)NC(=O)[C@@H](N)CCN)NC(=O)[C@H](CC(C)C)NC(=O)[C@@H](N)CCN)C(N)=O [MSt-201, (DabL)4(KDabL)2(KDabL)] (I: H-[Dab]LK([Leu-Dab])[Dab]LK[Dab]L-NH2 / II: H-[Dab]LK([Leu-Dab])[Dab]L; amide I:6-II:C; N-terminus assumed) | 5 (≈ 2.64 µM) |

The next lines start with the values.

| MIC P. aeruginosa PAO1 [µg/mL] | Compound |
| --- | --- |
| 2 (≈ 0.41 µM) | CC(C)C[C@H](NC(=O)[C@H](CC(C)C)NC(=O)[C@H](CCCCN)NC(=O)[C@H](CCCCNC(=O)[C@H](CC(C)C)NC(=O)[C@H](CCCCN)NC(=O)[C@H](CC(C)C)NC(=O)[C@H](CCCCNC(=O)[C@H](CC(C)C)NC(=O)[C@H](CCCCN)NC(=O)[C@H](CCCCNC(=O)[C@H](CC(C)C)NC(=O)[C@@H](N)CCCCN)NC(=O)[C@H](CC(C)C)NC(=O)[C@@H](N)CCCCN)NC(=O)[C@H](CC(C)C)NC(=O)[C@H](CCCCN)NC(=O)[C@H](CCCCNC(=O)[C@H](CC(C)C)NC(=O)[C@@H](N)CCCCN)NC(=O)[C@H](CC(C)C)NC(=O)[C@@H](N)CCCCN)NC(=O)[C@H](CC(C)C)NC(=O)[C@H](CCCCN)NC(=O)[C@H](CC(C)C)NC(=O)[C@H](CCCCNC(=O)[C@H](CC(C)C)NC(=O)[C@H](CCCCN)NC(=O)[C@H](CCCCNC(=O)[C@H](CC(C)C)NC(=O)[C@@H](N)CCCCN)NC(=O)[C@H](CC(C)C)NC(=O)[C@@H](N)CCCCN)NC(=O)[C@H](CC(C)C)NC(=O)[C@H](CCCCN)NC(=O)[C@H](CCCCNC(=O)[C@H](CC(C)C)NC(=O)[C@@H](N)CCCCN)NC(=O)[C@H](CC(C)C)NC(=O)[C@@H](N)CCCCN)C(N)=O [YGO-009, (KL)8(KKL)4(KLKL)2(KKLL)] (I: H-KLK([Leu-Lys])KLKLKLKKLL-NH2 / II: H-KLK([Leu-Lys])KLKLKL / III: H-KLK([Leu-Lys])KL / IV: H-KLK([Leu-Lys])KL; amide I:6-IV:C, I:10-II:C, II:6-III:C) |
| 2 (≈ 0.694 µM) | CC(C)C[C@H](NC(=O)[C@H](CCCCN)NC(=O)[C@H](CC(C)C)NC(=O)[C@H](CCCCNC(=O)[C@H](CC(C)C)NC(=O)[C@H](CCCCN)NC(=O)[C@H](CC(C)C)NC(=O)[C@H](CCCCNC(=O)[C@H](CC(C)C)NC(=O)[C@H](CCCCN)NC(=O)[C@@H](N)CC(C)C)NC(=O)[C@H](CC(C)C)NC(=O)[C@H](CCCCN)NC(=O)[C@@H](N)CC(C)C)NC(=O)[C@H](CC(C)C)NC(=O)[C@H](CCCCN)NC(=O)[C@H](CC(C)C)NC(=O)[C@H](CCCCNC(=O)[C@H](CC(C)C)NC(=O)[C@H](CCCCN)NC(=O)[C@@H](N)CC(C)C)NC(=O)[C@H](CC(C)C)NC(=O)[C@H](CCCCN)NC(=O)[C@@H](N)CC(C)C)C(N)=O [MIS-04, (LKL)4(KLKL)2(KLKL)] (I: H-LKLK([Leu-Lys-Leu])LKLKLKL-NH2 / II: H-LKLK([Leu-Lys-Leu])LKL; amide I:8-II:C) |
| 3 (≈ 0.616 µM) | CC(C)C[C@H](NC(=O)[C@H](CCCCN)NC(=O)[C@H](CC(C)C)NC(=O)[C@H](CCCCNC(=O)[C@H](CC(C)C)NC(=O)[C@H](CCCCN)NC(=O)[C@H](CC(C)C)NC(=O)[C@H](CCCCNC(=O)[C@H](CC(C)C)NC(=O)[C@H](CCCCN)NC(=O)[C@H](CCCCNC(=O)[C@H](CC(C)C)NC(=O)[C@@H](N)CCCCN)NC(=O)[C@H](CC(C)C)NC(=O)[C@@H](N)CCCCN)NC(=O)[C@H](CC(C)C)NC(=O)[C@H](CCCCN)NC(=O)[C@H](CCCCNC(=O)[C@H](CC(C)C)NC(=O)[C@@H](N)CCCCN)NC(=O)[C@H](CC(C)C)NC(=O)[C@@H](N)CCCCN)NC(=O)[C@H](CC(C)C)NC(=O)[C@H](CCCCN)NC(=O)[C@H](CC(C)C)NC(=O)[C@H](CCCCNC(=O)[C@H](CC(C)C)NC(=O)[C@H](CCCCN)NC(=O)[C@H](CCCCNC(=O)[C@H](CC(C)C)NC(=O)[C@@H](N)CCCCN)NC(=O)[C@H](CC(C)C)NC(=O)[C@@H](N)CCCCN)NC(=O)[C@H](CC(C)C)NC(=O)[C@H](CCCCN)NC(=O)[C@H](CCCCNC(=O)[C@H](CC(C)C)NC(=O)[C@@H](N)CCCCN)NC(=O)[C@H](CC(C)C)NC(=O)[C@@H](N)CCCCN)C(N)=O [YGO-011, (KL)8(KKL)4(KLKL)2(KLKL)] (I: H-KLK([Leu-Lys])KLKLKLKLKL-NH2 / II: H-KLK([Leu-Lys])KLKLKL / III: H-KLK([Leu-Lys])KL / IV: H-KLK([Leu-Lys])KL; amide I:6-IV:C, I:10-II:C, II:6-III:C) |

Tested on: Escherichia coli (strain DH5α)
Test: not given
Type: cell-based
Settings: DH5α
Procedure: as §1
The AMPD library was tested for their antimicrobial activity against B. subtilis BR151, a Gram-positive bacterium and E. coli DH5α, another Gram-negative bacterium, to cover a broader spectrum of different bacteria. […] Therefore no explicit SAR can be established, but clearly the hydrophobic amino acids Ala and Tyr seem to have a significant influence in reducing activity.

| MIC E. coli DH5α [µg/mL] | Compound |
| --- | --- |
| 12 (≈ 4.88 µM) | CCCCCCCCCCCCCCCC(=O)NCCCC[C@H](NC(=O)[C@H](CC(C)C)NC(=O)[C@H](CCCCN)NC(=O)[C@H](CCCCNC(=O)[C@H](CC(C)C)NC(=O)[C@H](CCCCN)NC(=O)[C@H](CCCCNC(=O)[C@H](CC(C)C)NC(=O)[C@@H](N)CCCCN)NC(=O)[C@H](CC(C)C)NC(=O)[C@@H](N)CCCCN)NC(=O)[C@H](CC(C)C)NC(=O)[C@H](CCCCN)NC(=O)[C@H](CCCCNC(=O)[C@H](CC(C)C)NC(=O)[C@@H](N)CCCCN)NC(=O)[C@H](CC(C)C)NC(=O)[C@@H](N)CCCCN)C(N)=O [MSt-302, (KL)4(KKL)2(KKLKC16)] (I: H-KLK([Leu-Lys])KLKKLK(Palmitoyl)-NH2 / II: H-KLK([Leu-Lys])KL; amide I:6-II:C) |
| >66 | CC(C)C[C@H](NC(=O)[C@H](CC(C)C)NC(=O)[C@H](CCCCNC(=O)[C@H](CCCCN)NC(=O)[C@H](CCCCN)NC(=O)[C@H](CCCCNC(=O)[C@H](CC(C)C)NC(=O)[C@H](CC(C)C)NC(=O)[C@H](CCCCNC(=O)[C@H](CCCCN)NC(=O)[C@@H](N)CCCCN)NC(=O)[C@H](CCCCN)NC(=O)[C@@H](N)CCCCN)NC(=O)[C@H](CC(C)C)NC(=O)[C@H](CC(C)C)NC(=O)[C@H](CCCCNC(=O)[C@H](CCCCN)NC(=O)[C@@H](N)CCCCN)NC(=O)[C@H](CCCCN)NC(=O)[C@@H](N)CCCCN)NC(=O)[C@H](CCCCN)NC(=O)[C@H](CCCCN)NC(=O)[C@H](CCCCNC(=O)[C@H](CC(C)C)NC(=O)[C@H](CC(C)C)NC(=O)[C@H](CCCCNC(=O)[C@H](CCCCN)NC(=O)[C@@H](N)CCCCN)NC(=O)[C@H](CCCCN)NC(=O)[C@@H](N)CCCCN)NC(=O)[C@H](CC(C)C)NC(=O)[C@H](CC(C)C)NC(=O)[C@H](CCCCNC(=O)[C@H](CCCCN)NC(=O)[C@@H](N)CCCCN)NC(=O)[C@H](CCCCN)NC(=O)[C@@H](N)CCCCN)C(N)=O [MSt-179, (KK)8(KLL)4(KKK)2(KLL)] (I: H-KKK([Lys-Lys])LLKKKKLL-NH2 / II: H-KKK([Lys-Lys])LLKKK / III: H-KKK([Lys-Lys])LL / IV: H-KKK([Lys-Lys])LL; amide I:6-IV:C, I:9-II:C, II:6-III:C; N-terminus assumed) |
